In US10723727B2, “Tubulysin analogs and methods for their preparation” (priority 2016, dated 2020):
pIC50: −log10 of the molar value.

What follows are compounds tested against T1, tubulin/RB3-stathmin-like-domain (RB3-SLD-tdm) complex (Sus scrofa, UniProt P02550+P02554) (assay: Tubulin Peptide-Binding Site Competition Assay (fluorescence polarization)). Conditions: FP competition with BODIPY-labeled vinca peptide probe; read after five hours at 22° C.; read-out: Tubulin Peptide-Binding Site Competition Assay IC50.
T1 construct: purchased Cytoskeleton, Inc. T240; host or cells: RB3-SLD was made in house in E. coli
Set-up: species or system Porcine
Experimental: Tubulin Peptide-Binding Site Competition Assay
Tubulin binding potency was measured for payloads or cysteine-capped linker-payloads using a fluorescence polarization (FP) competition assay. The binding of a BODIPY-labeled vinca peptide probe (# B31) to a tubulin/RB3-stathmin-like-domain (RB3-SLD-tdm) complex generates a high FP signal, which can be decreased when mixing with test compounds that compete with the FP probe. The order of addition for the reagents in the FP assay was designed to pre-mix the FP probe with various concentrations of the test compound before mixing them with the tubulin/RB3-SLD-dm complex. The final assay concentrations of the probe, tubulin and RB3-SLD-dm were 3, 6, and 100 nM, respectively. IC50 for each test compound is obtained by fitting the dose-dependent FP signal change using GraphPad Prism version 5 software (La Jolla, Calif.) while Ki is converted from the IC50 using the equations described previously (Nikolovska-Coleska et al., 2004). The FP signals were measured on an Infinite M1000 (Tecan, San Jose, Calif.) using ProxiPlate-384 F Plus, Black (Perkin-Elmer, Waltham, Mass., Cat #6008260) with 15 μL of solution per well. Sample dilution and mixing were done using a Beckman Biomek XF (Brea, Calif.). Porcine tubulin was purchased from Cytoskeleton, Inc. (Denver, Colo., Cat #T240) and RB3-SLD was expressed in E. coli. and purified on Q and then Superdex75 columns. The FP assay test for each compound was run in duplicates by mixing 6 μL of solution 1 containing 2.5× test compound (2.5× serial dilution from 7.8 μM maximum concentration, 11 total concentrations) and 7.5 nM of the FP probe in 80 mM PIPES, pH 7.0, 0.02% Tween 20, 2 mM MgCl2, 1 mM EGTA and 3% DMSO with 9 μL of solution 2 containing […] porcine tubulin and 167 nM of RB3-SLD-dm peptide ([…]-[…]) on ProxiPlate-384 micro-plates.

`CC[C@H](C)[C@H](NC(=O)[C@@]1(C)CCCN1C)C(=O)N(C)[C@H](C[C@@H](OC(C)=O)c1nc(C(=O)NC(c2ccccc2)c2ccccc2)cs1)C(C)C` [#B67, 1,2-dimethyl-D-prolyl-N-[(1R,3R)-1-(acetyloxy)-1-{4-[(diphenylmethyl)carbamoyl]-1,3-thiazol-2-yl}-4-methylpentan-3-yl]-N-methyl-L-isoleucinamide] was tested. Which pIC50 did it give?
The pIC50 was 6.46.

How did the pIC50 turn out when `CC[C@H](C)[C@H](NC(=O)[C@@]1(C)CCCN1C)C(=O)N(C)[C@H](C[C@@H](OC(C)=O)c1nc(C(=O)NCCn2nc(C)cc2C)cs1)C(C)C` [#B42, 1,2-dimethyl-D-prolyl-N-[(1R,3R)-1-(acetyloxy)-1-(4-{[2-(3,5-dimethyl-1H-pyrazol-1-yl)ethyl]carbamoyl}-1,3-thiazol-2-yl)-4-methylpentan-3-yl]-N-methyl-L-isoleucinamide] was run?
The pIC50 was 7.56.

How did the pIC50 turn out when `CC[C@H](C)[C@H](NC(=O)[C@@]1(C)CCCN1C)C(=O)N(C)[C@H](C[C@@H](OC(C)=O)c1nc(C(=O)NCCCN2CCCC2=O)cs1)C(C)C` [#B43, 1,2-dimethyl-D-prolyl-N-[(1R,3R)-1-(acetyloxy)-4-methyl-1-(4-{[3-(2-oxopyrrolidin-1-yl)propyl]carbamoyl}-1,3-thiazol-2-yl)pentan-3-yl]-N-methyl-L-isoleucinamide] was run?
The pIC50 was 7.29.

How did the pIC50 turn out when `CC[C@H](C)[C@H](NC(=O)[C@@]1(C)CCCN1C)C(=O)N(C)[C@H](C[C@@H](OC(C)=O)c1nc(C(=O)NCCn2ccnc2)cs1)C(C)C` [#B48, 1,2-dimethyl-D-prolyl-N-[(1R,3R)-1-(acetyloxy)-1-{4-{[2-(1H-imidazol-1-yl)ethyl]carbamoyl}-1,3-thiazol-2-yl)-4-methylpentan-3-yl]-N-methyl-L-isoleucinamide] was run?
The pIC50 was 6.96.

How did the pIC50 turn out when `CC[C@H](C)[C@H](NC(=O)[C@@]1(C)CCCN1C)C(=O)N(C)[C@H](C[C@@H](OC(C)=O)c1nc(C(=O)NC2(Cc3ccccc3)CC2)cs1)C(C)C` [#B55] was run?
Its pIC50 is 7.55.

How did the pIC50 turn out when `CC[C@H](C)[C@H](NC(=O)[C@@]1(C)CCCN1C)C(=O)N(C)[C@H](C[C@@H](OC(C)=O)c1nc(C(=O)NCCc2cnccn2)cs1)C(C)C` [#B68, 1,2-dimethyl-D-prolyl-N-{(1R,3R)-1-(acetyloxy)-4-methyl-1-(4-{[2-(pyrazin-2-yl)ethyl]carbamoyl}-1,3-thiazol-2-yl)pentan-3-yl]-N-methyl-L-isoleucinamide] was run?
Its pIC50 is 7.07.

`CC[C@H](C)[C@H](NC(=O)[C@@]1(C)CCCN1C)C(=O)N(C)[C@H](C[C@@H](OC(C)=O)c1nc(C(=O)NCCN2CCCC2=O)cs1)C(C)C` [#B73, 1,2-dimethyl-D-prolyl-N-[(1R,3R)-1-(acetyloxy)-4-methyl-1-(4-{[2-(2-oxopyrrolidin-1-yl)ethyl]carbamoyl}-1,3-thiazol-2-yl)pentan-3-yl]-N-methyl-L-isoleucinamide] was tested. Which pIC50 did it give?
Its pIC50 is 7.07.

With `CC[C@H](C)[C@H](NC(=O)[C@@]1(C)CCCN1C)C(=O)N(C)[C@H](C[C@@H](OC(C)=O)c1nc(C(=O)NCCn2cccn2)cs1)C(C)C` [#B56, 1,2-dimethyl-D-prolyl-N-[(1R,3R)-1-(acetyloxy)-4-methyl-1-(4-{[2-(1H-pyrazol-1-yl)ethyl]carbamoyl}-1,3-thiazol-2-yl)pentan-3-yl]-N-methyl-L-isoleucinamide] as the compound, how does the pIC50 read?
Its pIC50 is 7.47.

With `CC[C@H](C)[C@H](NC(=O)[C@@]1(C)CCCN1C)C(=O)N(C)[C@H](C[C@@H](OC(C)=O)c1nc(C(=O)NCCc2cncnc2)cs1)C(C)C` [#B71, 1,2-dimethyl-D-prolyl-N-[(1R,3R)-1-(acetyloxy)-4-methyl-1-(4-{[2-(pyrimidin-5-yl)ethyl]carbamoyl}-1,3-thiazol-2-yl)pentan-3-yl]-N-methyl-L-isoleucinamide] as the compound, how does the pIC50 read?
Its pIC50 is 7.07.

`CC[C@H](C)[C@H](NC(=O)[C@@]1(C)CCCN1C)C(=O)N(C)[C@H](C[C@@H](OC(C)=O)c1nc(C(=O)NC(Cc2ccccc2)c2ccccc2)cs1)C(C)C` (stereo partly drawn) [#B74, 1,2-dimethyl-D-prolyl-N-[(1R,3R)-1-(acetyloxy)-1-{4-[(1,2-diphenylethyl)carbamoyl]-1,3-thiazol-2-yl}-4-methylpentan-3-yl]-N-methyl-L-isoleucinamide] was tested. Which pIC50 did it give?
The pIC50 was 7.05.
